Results as given in US9920074B2 (ACEA BIOSCIENCES INC., priority 2013, dated 2018).
“Also recorded” adds a separate entry of the source.

Key:
Assay type in all cases: cell-based
[1] = tested on: Stat5 phosphorylation in NK-92 cells; assay: Western blotting assay for Stat5; conditions: NK92, 1 hour, IL-2 stimulation, read-out: Stat5 inhibition
Procedure, shortened: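 NK-92 cells, maintained with IL-2, were pre-treated with compound for 1 h, then stimulated with IL-2 for 15 min. Lysates were western blotted for phospho- and total Jak3 and Stat5. IC50 came from densitometry of phospho-band intensity.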

[2] = target: T1, Btk (Tyr223) phosphorylation in Ramos cells (Homo sapiens, UniProt Q06187); assay: Western blotting assay for Btk (Example 73); conditions: 45 min, 6 μg/mL anti-IgM, read-out: Btk Inhibition
T1 construct: endogenous in cells; host or cells: Ramos cells (ATCC)
T1 sequence (Q06187 whole entry): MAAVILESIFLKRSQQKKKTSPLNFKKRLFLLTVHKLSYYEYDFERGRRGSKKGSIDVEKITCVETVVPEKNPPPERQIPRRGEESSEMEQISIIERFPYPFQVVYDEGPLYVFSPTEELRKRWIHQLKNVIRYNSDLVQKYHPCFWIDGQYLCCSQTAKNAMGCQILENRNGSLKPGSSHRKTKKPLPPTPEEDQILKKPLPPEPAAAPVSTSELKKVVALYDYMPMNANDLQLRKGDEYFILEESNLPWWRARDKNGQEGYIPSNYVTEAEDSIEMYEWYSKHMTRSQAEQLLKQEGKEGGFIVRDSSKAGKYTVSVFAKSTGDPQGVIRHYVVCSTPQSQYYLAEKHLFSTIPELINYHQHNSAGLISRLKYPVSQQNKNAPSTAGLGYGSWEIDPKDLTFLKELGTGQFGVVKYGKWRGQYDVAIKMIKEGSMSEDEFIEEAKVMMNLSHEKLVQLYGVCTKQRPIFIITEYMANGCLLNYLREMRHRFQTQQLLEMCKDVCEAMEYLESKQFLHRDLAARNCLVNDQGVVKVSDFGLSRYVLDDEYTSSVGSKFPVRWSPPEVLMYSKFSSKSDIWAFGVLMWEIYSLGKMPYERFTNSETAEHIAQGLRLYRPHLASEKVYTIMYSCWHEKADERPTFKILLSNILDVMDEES
Procedure, shortened: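 Ramos cells pre-treated with compound for 45 min at room temperature, then stimulated with 6 μg/mL anti-IgM for 30 min and lysed. Phospho-Btk (Tyr223) measured by Western blot band densitometry; IC50 fitted by non-linear regression.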

[3] = target: T2, Jak3 phosphorylation in NK-92 cells (Homo sapiens, UniProt P52333); assay: Western blotting assay for Jak3; conditions: 1 hour, IL-2 stimulation, read-out: Jak3 inhibition
T2 construct: endogenous in cells; host or cells: NK-92 cells (ATCC)
T2 sequence (P52333 1-1124): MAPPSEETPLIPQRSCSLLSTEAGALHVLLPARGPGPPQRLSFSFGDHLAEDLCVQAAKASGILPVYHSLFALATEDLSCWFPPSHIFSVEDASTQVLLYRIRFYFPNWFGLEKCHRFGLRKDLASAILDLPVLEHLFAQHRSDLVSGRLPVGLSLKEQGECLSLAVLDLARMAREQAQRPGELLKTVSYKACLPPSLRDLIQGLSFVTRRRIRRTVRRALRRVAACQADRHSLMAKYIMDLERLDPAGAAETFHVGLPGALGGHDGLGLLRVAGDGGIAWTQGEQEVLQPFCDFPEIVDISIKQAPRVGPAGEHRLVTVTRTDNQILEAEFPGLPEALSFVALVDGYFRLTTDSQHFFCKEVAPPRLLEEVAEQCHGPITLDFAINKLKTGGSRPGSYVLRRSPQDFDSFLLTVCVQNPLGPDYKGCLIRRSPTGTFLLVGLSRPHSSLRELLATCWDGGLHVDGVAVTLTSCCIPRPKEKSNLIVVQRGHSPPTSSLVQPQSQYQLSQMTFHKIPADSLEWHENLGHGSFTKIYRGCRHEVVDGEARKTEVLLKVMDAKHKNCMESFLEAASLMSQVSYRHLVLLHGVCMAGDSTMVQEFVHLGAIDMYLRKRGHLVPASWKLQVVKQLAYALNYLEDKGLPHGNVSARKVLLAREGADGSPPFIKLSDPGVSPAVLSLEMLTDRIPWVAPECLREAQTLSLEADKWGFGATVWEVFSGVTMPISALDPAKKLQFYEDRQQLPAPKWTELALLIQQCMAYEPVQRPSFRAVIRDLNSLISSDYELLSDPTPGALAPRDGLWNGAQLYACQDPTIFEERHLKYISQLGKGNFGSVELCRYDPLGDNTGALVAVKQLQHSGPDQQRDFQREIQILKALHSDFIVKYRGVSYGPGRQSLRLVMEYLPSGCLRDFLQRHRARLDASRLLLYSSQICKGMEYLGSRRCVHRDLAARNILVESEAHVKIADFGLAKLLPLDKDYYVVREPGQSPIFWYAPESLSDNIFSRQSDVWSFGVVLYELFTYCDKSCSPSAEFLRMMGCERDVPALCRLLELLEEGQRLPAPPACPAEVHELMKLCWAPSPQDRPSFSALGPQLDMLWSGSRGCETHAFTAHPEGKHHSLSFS
Procedure: All cell lines were obtained from the American Type Culture Collection and were maintained at 37° C. with 5% CO2. Ramos cell line was maintained in media supplemented with 10% fetal bovine serum, penicillin (100 units/mL) and streptomycin (100 μg/mL). NK-92 cell line was maintained in media supplemented with 10% fetal bovine serum and 10% horse serum, penicillin (100 units/mL) and streptomycin (100 μg/mL), IL-2 10 ng/mL. Goat F(ab′)2 Anti-Human IgM-UNLB was obtained from SouthernBiotech. IL-2 was obtained from Peprotech.
NK-92 cells were treated with compounds at the dosed indicated for 1 hour in incubator, followed by the IL-2 stimulation for 15 minutes. Cells were then collected and lysed to prepare the cellular extraction. Western blots were performed on cell lysate using Phospho-Jak3, Jak3, Phospho-Stat5, Stat5 antibodies (Cell Signaling Technology). The intensity of blotting band was acquired using Image Lab (Bio-Rad) software, and the IC50 of target was generated with GraphPad Prism.

[4] = target: T3, Btk phosphorylation in Ramos cells (Homo sapiens, UniProt Q06187); assay: Pulse chase western blotting assay for irreversibility / binding property; conditions: 100 nM for 45 mins, monitored 4, 6 and 8 h post removal
T3 construct: endogenous in cells; host or cells: Ramos cells (ATCC)
T3 sequence (Q06187 whole entry): as the sequence (Q06187 whole entry) above
Procedure: Ramos cells were treated with Compound I-1 at 100 nM for 45 min. Cells were then re-suspended in compound free media and stimulated with 6 μg/ml IgM at 0, 4, 6 or 8 hours after compound removal. Cells were then lysed after 30 mm IgM stimulation. West blotting analysis were then performed.
Ramos cells were treated with Compounds at 100 nM for 45 min. Cells were then re-suspended in compound free media and stimulated with 6 μg/ml anti-IgM at 0, 4, 6 or 8 hours after compound removal. Cells were then lysed after 30 mm anti-IgM stimulation. Western blotting analysis was then performed.

[5] = target: T1, Btk (Tyr223) phosphorylation in Ramos cells; assay: Btk Tyr223 phosphorylation inhibition, western blotting assay (Example 72)
Procedure: Ramos cell line was obtained from the American Type Culture Collection and was maintained at 37° C. with 5% CO2, in media supplemented with 10% fetal bovine serum, penicillin (100 units/mL) and streptomycin (100 μg/mL), Goat F(ab′)2 Anti-Human IgM-UNLB was obtained from SouthernBiotech.
Ramos cells were treated with compounds at indicated doses for 45 min at room temperature, followed by stimulation of 12 μg/mL of IgM for 30 min, and then lysed. Western blots were performed on the cell lysate using Phospho-Btk (Tyr223), Phospho-Btk (Tyr551), Btk, Phospho-PLCγ2 (Tyr1217), PLCγ2, Phospho-p44/42 MAPK (Erk1/2) (Thr202/Tyr204) and p44/42 MAPK (Erk1/2) antibodies (Cell Signaling Technology). The density of blotting band was acquired using ImageJ software, and the IC50 of Btk (Tyr223) phosphorylation was fitted using a non-linear regression model by GraphPad Prism version 4.0.

[6] = target: T4, free Btk protein from Ramos cells (Homo sapiens, UniProt Q06187); assay: Btk target site occupancy ELISA assay; conditions: 1 h, ELISA, read-out: Btk Occupancy Assay (IC50)
T4 construct: endogenous in cells; host or cells: Ramos cells (ATCC)
T4 sequence (Q06187 whole entry): as the sequence (Q06187 whole entry) above
Procedure: (§1) Ramos cells were treated with Compound I-1 at indicated concentrations for 1 h, followed by stimulation with 6 μg/mL of IgM for 30 mm, and then lysed. Lysates were incubated with Compound I-21 (biotin labeled) at a final concentration of 1 μM in a PBS, 0.05% Tween-20, 1% BSA solution while shaking for 1 h at room temperature. Samples were transferred to a streptavidin-coated 96-well ELISA plate and mixed while shaking for 1 h at room temperature. The Btk antibody (BD 611116, 1:1000 dilution in PBS+0.05% Tween-20+0.5% BSA) was then applied and incubated for 1 h at room temperature. After wash, goat anti-mouse-HRP (Pierce 31432, 1:1000 dilution in PBS+0.05% Tween-20+0.5% BSA) was added and incubated for 1 h at room temperature. The ELISA was developed with addition of tetramethyl benzidine (TMB) followed by Stop Solution and read at OD 450 nm.
as §1, with “Compounds” for “Compound I-1”, “anti-IgM” for “IgM”, “diluted” for “dilution”, “tetramethylbenzidine” for “tetramethyl benzidine”

| Compound | IC50 [1] | IC50 [2] | IC50 [3] | inhibition of BTK phosphorylation after compound removal (irreversibility) [4] | IC50 ([5]; Btk Tyr223 phosphorylation, 45 min, 12 μg/mL IgM, read-out: BTK Inhibition) | IC50 ([5]; treated 45 mins, read-out: inhibition IC50 of the phosphorylation of BTK protein) | reduction of the Btk Tyr223 phosphorylation in Ramos cells ([5]; western blot) | IC50 [6] |
| --- | --- | --- | --- | --- | --- | --- | --- | --- |
| C=CC(=O)Nc1cccc(Oc2nc(Nc3ccc(N4CCN(C)CC4)c(F)c3)ncc2OC)c1 [Compound I-2, N-(3-(2-(3-fluoro-4-(4-methylpiperazin-1-yl)phenylamino)-5-methoxypyrimidin-4-yloxy)phenyl) acrylamide] | 200 to 400 nM | ≤ 10 nM | 200 to 400 nM | remains inhibited up to 8 his; also recorded: long term effect of the inhibition was observed after compounds removal up to 8 hours; also recorded: remains inhibited up to 8 hrs; also recorded: irreversibly inhibited the BTK phosphorylation; also recorded: inhibited the Btk phosphorylation in Ramos cells after 8 hours of removal | < 10 nM | 5 nM | reduction of the Btk Tyr223 phosphorylation |  |
| C=CC(=O)Nc1cccc(Oc2nc(Nc3ccc(N4CCN(CCOC)CC4)cc3)ncc2OC)c1 [Compound I-25a, N-(3-(5-methoxy-2-(4-(4-(2-methoxyethyl)piperazin-1-yl)phenylamino)pyrimidin-4-yloxy)phenyl)acrylamide] | ≥ 400 nM | ≤ 10 nM | ≥ 400 nM |  |  |  |  | ≤ 10 nM |
